Assay results taken from patent publication US9255272B2, “Use of inhibitors of leukotriene B4 receptor BLT2 for treating asthma” (Korea University Research & Business Foundation, priority 2007, dated 2016).

Columns and labels:
[1] = system: BLT2 mRNA; assay: BLT2 mRNA level in lung of OVA-challenged mice (semiquantitative RT-PCR, real-time PCR); format: in vivo, mouse
Experimental: (§1) Female BALB/c mice and C57BL/6 mice (7 weeks old; 18-20 g) were obtained from Orientbion Inc. (Seoungnam, Korea). Sensitization and challenge were carried out as described previously with some modification (28). Briefly, female C57BL/6 mice (7 weeks old; 18-20 g) were immunized by intraperitoneal (i.p.) injection of 200 μg ovalbumin (OVA) emulsified in 2.5 mg of adjuvant aluminum hydroperoxide gel (alum) (Pierce, Rockford, Ill.). A second i.p. injection of 20 μg OVA adsorbed onto alum (2.5 mg) was administered 10 days later. After an additional 10 days, mice were exposed to an aerosol of 1% OVA in saline for 30 min daily on 3 consecutive days. On day 25, mice were finally challenged by provocation with 10% OVA aerosol. […]
(§2) Total RNA was extracted from lung samples using Easy-blue RNA extraction reagent (Intron, Korea). […] For the semiquantitative analysis of transcripts, the optimal PCR conditions were first determined by linear amplification of glyceraldehyde-3-phosphate dehydrogenase (GAPDH). […]
as §2

[2] = target: eosinophil membranes (LTB4 binding); conditions: read-out: IC50 for inhibition of the binding of radiolabeled LTB4 to eosinophil membranes; cited from earlier work
[3] = system: acute lung injury induced by endotoxin; conditions: pigs, cited from earlier work
[4] = system: LTB4; assay: LTB4 level in BAL fluid (EIA); format: in vivo, mouse; conditions: antisense BLT2 1.6 mg/kg i.v. 24 h and 1 h before 10% OVA; 48 h
Experimental: as §1, with “aerosol. For inhibition experiments, sense or antisense BLT2 (1.6 mg/kg) was injected intravenously 24 h and then 1 h before the 10% OVA challenge. The mice were then killed on day 27 to assess asthmatic phenotypes.” for “aerosol.”
Levels of LTB4 were quantified with the leukotriene B4 enzyme immunoassay (EIA) Biotrak™ system (Amersham Biosciences, UK). […] Substrate (tetramethylbenzidine) was then added, and the reaction was stopped by adding an acid solution and the color read at 450 nm in a spectrophotometer. […] Statistical significance of differences between groups was assessed by analysis of variance, and P<0.05 was considered significant.

[5] = system: OVA-challenged mice; assay: Recruitment of CD4+ and CD8+ T cells into BAL fluid (flow cytometry); format: in vivo, mouse; conditions: BAL fluid 12 hr after 10% OVA challenge
Excerpt: FIGS. 8a and 8b show recruitment of T lymphocytes into airways. FIG. 8a depicts FACS analysis showing recruitment of CD4+ T cells into the BAL fluid of mice 12 hr after aerosol OVA challenge. FIG. 8b depicts FACS analysis showing recruitment of CD8+ T cells into the BAL fluid of mice 12 hr after aerosol OVA challenge. BAL fluid was collected 12 hr after 10% OVA challenge and washed with PBS. The leukocytes present were stained with FITC-conjugated anti-mouse TCR chain and PE-cy5 anti-mouse CD8a or PE rat anti-mouse CD4 after blocking with anti-FcRyantibody. Samples were then analyzed by flow cytometry to assess T lymphocyte recruitment. Data are means±SEM (n=6 in each group). *P<0.05 vs. OVA/asBLT2. For flow cytometric analysis, the cells in the BAL fluid were suspended in 50 μl of PBS containing 0.01% sodium azide and 0.1% BSA. BAL leukocytes were incubated for 30 min with 2.4G2 anti-FcγIII/II receptor (BD PharMingen) and stained for 30 min at 4° C. with FITC-conjugated anti-mouse TCR. chain (BD PharMingen) and PE-cy5 anti-mouse CD8a (BD PharMingen) or PE rat anti-mouse CD4 (BD PharMingen). Cytofluorimetry was performed with a FACS Caiibur™ (Becton Dickinson, Franklin Lakes, N.J.), and the results were analyzed with CellQuest software (Becton-Dickinson).

For `CCc1cc(C(C)=O)c(O)cc1OCCCCCC(C)(C)c1nnn[nH]1` [LY255283, 1-[5-ethyl-2-hydroxy-4-[[6-methyl-6-(1H-tetrazol-5-yl)heptyl]oxy]phenyl]-ethanone, reference compound], the “level of BLT2 mRNA in the lung” value ([1]; BALB/c mice, LY255283 2.5 mg/kg i.v. 1 hr before 1% OVA challenge, 48 h after challenge) is given as “significantly reduced”, the IC50 [2] is given as 260 nM and the activation of neutrophils ([3]; endotoxin) is given as “limits activation of neutrophils”. The “acute lung injury induced by endotoxin” value [3] was “prevents acute lung injury”.
In the case of “antisense BLT2: Antisense BLT2 oligonucleotide 5′-GCTCAGTAGTGTCTCATTCC-3′ (SEQ ID NO: 15) (listed as DNA, chemistry not fully specified)”, the “BLT2 expression in the lung (mRNA)” value ([1]; C57BL/6 mice, 1.6 mg/kg i.v. 24 hr and 1 hr before 10% OVA challenge, 48 hr after challenge) is reported as “reduced”, the “suppression of the level of LTB4 in BAL fluid” value [4] is reported as −72% and the “effect on T cell trafficking into airways” value [5] is reported as “no inhibitory effect”.
